# Test results published in patent US8222416B2, “Azaindole glucokinase activators” (Hoffmann-La Roche Inc., priority 2009, dated 2012).
# Target: T1, Recombinant human liver GK1 (GST-GK) (Homo sapiens, UniProt P35557)
# T1 construct: made in house; host or cells: E. coli
# T1 sequence (P35557 1-466 isoform P35557-2): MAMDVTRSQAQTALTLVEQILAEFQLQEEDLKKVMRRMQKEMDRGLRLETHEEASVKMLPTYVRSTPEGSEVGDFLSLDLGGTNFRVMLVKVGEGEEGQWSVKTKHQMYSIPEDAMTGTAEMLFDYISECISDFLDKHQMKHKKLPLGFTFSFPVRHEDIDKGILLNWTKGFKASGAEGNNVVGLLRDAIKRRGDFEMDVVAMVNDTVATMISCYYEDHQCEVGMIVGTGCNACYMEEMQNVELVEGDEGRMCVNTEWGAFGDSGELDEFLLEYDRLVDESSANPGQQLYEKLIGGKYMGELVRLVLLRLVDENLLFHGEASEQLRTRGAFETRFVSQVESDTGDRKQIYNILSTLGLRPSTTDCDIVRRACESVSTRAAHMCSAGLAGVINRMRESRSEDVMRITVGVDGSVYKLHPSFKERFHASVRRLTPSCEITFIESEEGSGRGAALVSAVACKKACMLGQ
# Assay: In vitro glucokinase activity assay (G6PDH-coupled, NADH, OD340)
# Format: biochemical
# Details: at 30 μM
# Method: Glucokinase In Vitro Assay Protocol: Glucokinase (GK) was assayed by coupling the production of glucose-6-phosphate to the generation of NADH with glucose-6-phosphate dehydrogenase (G6PDH, 0.75-1 kunits/mg; Boehringer Mannheim, Indianapolis, Ind.) from Leuconostoc mesenteroides as the coupling enzyme (Scheme 2).
# Recombinant human liver GK1 was expressed in E. coli as a glutathione S-transferase fusion protein (GST-GK) [Liang et al, 1995] and was purified by chromatography over a glutathione-Sepharose 4B affinity column using the procedure provided by the manufacturer (Amersham Pharmacia Biotech, Piscataway, N.J.).
# The assay was conducted at 30° C. in a flat bottom 96-well tissue culture plate from Costar (Cambridge, Mass.) with a final incubation volume of 120 μL. The incubation reaction contained the following: 25 mM Hepes buffer (pH 7.1), 25 mM KCl, 5 mM D-glucose, 1 mM ATP, 1.8 mM NAD, 2 mM MgCl2, 1 μM sorbitol-6-phosphate, 1 mM dithiothreitol, test drug or 10% dimethylsulfoxide, ˜7 units/ml G6PDH, and GK (see below). All organic reagents were >98% pure and were from Boehringer Mannheim with the exceptions of D-glucose and Hepes which were from Sigma Chemical Co, St Louis, Mo. Test compounds were dissolved in dimethylsulfoxide and were added to the incubation reaction minus GST-GK in a volume of 12 μL to yield a final dimethylsulfoxide concentration of 10%. This mix was pre-incubated in the temperature controlled chamber of a SPECTRAmax 250 microplate spectrophotometer (Molecular Devices Corporation, Sunnyvale, Calif.) for 10 minutes to allow temperature equilibrium and then the reaction was started by the addition of 20 μL GST-GK.
# After addition of enzyme, the increase in optical density (OD) at 340 nm was monitored spectrophotometrically to determine the rate of change (OD340 per min). The GK activity (OD340/min) in control wells (10% dimethylsulfoxide minus GK activators) was compared with the activity in wells containing test GK activators, and the concentration of activator that produced a 50% increase in the activity of GK, i.e., the SC1.5, was calculated.
row,fold activation of GK [fold at 30],Structure (SMILES)
1,1.4,"COc1cnc2[nH]c(C(CC3CCCC3)c3ccc(C(C)(C)O)cc3)cc2c1 (centres unmarked) [Example 35, 2-{4-[2-Cyclopentyl-1-(5-methoxy-1H-pyrrolo[2,3-b]pyridin-2-yl)-ethyl]-phenyl}-propan-2-ol]"

# Same assay, conditions: concentration of activator that produced a 50% increase in the activity of GK; 5 mM D-glucose, 30° C.
row,SC1.5 [µM],Structure (SMILES)
1,9.8,"CS(=O)(=O)c1ccc(C(CC2CCCC2)c2cc3cc(CC#N)cnc3[nH]2)cc1 (centres unmarked) [Example 38, {2-[2-Cyclopentyl-1-(4-methanesulfonyl-phenyl)-ethyl]-1H-pyrrolo[2,3-b]pyridin-5-yl}-acetonitrile]"
2,11.9,"CS(=O)(=O)c1ccc(C(CC2CCC(=O)C2)c2cc3cccnc3[nH]2)cc1 (single isomer, unassigned) [Example 78, 3-[2-(4-Methanesulfonyl-phenyl)-2-(1H-pyrrolo[2,3-b]pyridin-2-yl)-ethyl]-cyclopentanone]"
3,2.5,O=S(=O)(CCO)c1ccc(C(CC2CCOCC2)c2cc3cc(F)cnc3[nH]2)cc1 (centres unmarked) [Example 89]
4,0.354,"CS(=O)(=O)c1ccc(C(O)(CC2CCCC2)c2cc3cc(F)cnc3[nH]2)cc1 (single isomer, unassigned) [Example 49, 2-Cyclopentyl-1-(5-fluoro-1H-pyrrolo[2,3-b]pyridin-2-yl)-1-(4-methanesulfonyl-phenyl)-ethanol]"
5,11.3,"CNC(=O)c1cnc2[nH]c(C(CC(C)C)c3ccc(S(C)(=O)=O)cc3)cc2c1 (centres unmarked) [Example 2, 2-[1-(4-Methanesulfonyl-phenyl)-3-methyl-butyl]-1H-pyrrolo[2,3-b]pyridin-5-carboxylic acid methylamide]"
6,3.0,"COc1cnc2[nH]c(C(CC3CCOCC3)c3ccc(C(F)(F)F)cc3)cc2c1 (centres unmarked) [Example 33, 5-Methoxy-2-[2-(tetrahydro-pyran-4-yl)-1-(4-trifluoromethyl-phenyl)-ethyl]-1H-pyrrolo[2,3-b]pyridine]"
7,3.5,Cc1ccc(C(CC2CCCC2)c2cc3cccnc3[nH]2)cn1 (centres unmarked) [Example 63]
8,9.4,"CN(C)CC(=O)Nc1cnc2[nH]c(C(CC3CCCC3)c3ccc(S(C)(=O)=O)cc3)cc2c1 (centres unmarked) [Example 107, N-{2-[2-Cyclopentyl-1-(4-methanesulfonyl-phenyl)-ethyl]-1H-pyrrolo[2,3-b]pyridin-5-yl}-2-dimethylamino-acetamide]"
9,9.6,"CC(=O)c1cccc(C(CC(C)C)c2cc3cccnc3[nH]2)c1 (centres unmarked) [Example 135, 1-{3-[3-Methyl-1-(1H-pyrrolo[2,3-b]pyridin-2-yl)-butyl]-phenyl}-ethanone]"
10,0.415,"CS(=O)(=O)c1ccc(C(CC2CCC2)c2cc3cc(F)cnc3[nH]2)cc1 (centres unmarked) [Example 47, 2-[2-Cyclobutyl-1-(4-methanesulfonyl-phenyl)-ethyl]-5-fluoro-1H-pyrrolo[2,3-b]pyridine]"
11,0.343,"N#Cc1ccc([C@@H](CC2CCCC2)c2cc3cc(F)cnc3[nH]2)cc1 (single isomer, unassigned) [Example 51]"
12,0.201,"CC(C)C[C@H](c1ccc(S(C)(=O)=O)cc1)c1cc2cc(F)cnc2[nH]1 (single isomer, unassigned) [Example 100]"
13,10.5,"CS(=O)(=O)c1ccc(C(CC2CCCC2)c2cc3cc(C(=O)N4CCOCC4)cnc3[nH]2)cc1 (centres unmarked) [Example 4, {2-[2-Cyclopentyl-1-(4-methanesulfonyl-phenyl)-ethyl]-1H-pyrrolo[2,3-b]pyridin-5-yl}-morpholin-4-yl-methanone]"
14,0.8,"CS(=O)(=O)c1ccc(C(CC2CCCC2)c2cc3cc(OCCO)cnc3[nH]2)cc1 (centres unmarked) [Example 30, 2-{2-[2-Cyclopentyl-1-(4-methanesulfonyl-phenyl)-ethyl]-1H-pyrrolo[2,3-b]pyridin-5-yloxy}-ethanol]"
15,0.47,"CS(=O)(=O)c1ccc(C(CC2CCOCC2)c2cc3cc(F)cnc3[nH]2)cc1 (centres unmarked) [Example 123, 5-Fluoro-2-[1-(4-methanesulfonyl-phenyl)-2-(tetrahydro-pyran-4-yl)-ethyl]-1H-pyrrolo[2,3-b]pyridine]"
16,7.4,"CS(=O)(=O)c1ccc(C(O)(CC2CCC2)c2cc3cccnc3[nH]2)cc1 (centres unmarked) [Example 115, 2-Cyclobutyl-1-(4-methanesulfonyl-phenyl)-1-(1H-pyrrolo[2,3-]pyridin-2-yl)-ethanol]"

row,SC1.5 [µM],Structure (SMILES)
1,0.144,"CS(=O)(=O)c1ccc([C@@H](CC2CCCC2)c2cc3cc(C#N)cnc3[nH]2)cc1 (single isomer, unassigned) [Example 53]"
2,0.18,"COc1cnc2[nH]c(C(CC3CCCC3)c3ccc(S(C)(=O)=O)cc3)cc2c1 (centres unmarked) [Example 12, 2-[2-Cyclopentyl-1-(4-methanesulfonyl-phenyl)-ethyl]-5-methoxy-1H-pyrrolo[2,3-b]pyridine]"
3,0.427,"CC(C)C[C@H](c1ccc(S(=O)(=O)CCO)cc1)c1cc2cc(F)cnc2[nH]1 (single isomer, unassigned) [Example 102]"
4,2.3,"CC(C)(O)c1ccc(C(CC2CCCC2)c2cc3cccnc3[nH]2)cc1 (centres unmarked) [Example 81, 2-{4-[2-Cyclopentyl-1-(1H-pyrrolo[2,3-b]pyridin-2-yl)-ethyl]-phenyl}-propan-2-ol]"
5,0.201,"CS(=O)(=O)c1ccc(C(CC2CCC(=O)C2)c2cc3cccnc3[nH]2)cc1 (single isomer, unassigned) [Example 79, 3-[2-(4-Methanesulfonyl-phenyl)-2-(1H-pyrrolo[2,3-b]pyridin-2-yl)-ethyl]-cyclopentanone]"
6,2.2,"CC(O)c1ccc(C(CC2CCCC2)c2cc3cccnc3[nH]2)cc1 (centres unmarked) [Example 64, 1-{4-[2-Cyclopentyl-1-(1H-pyrrolo[2,3-b]pyridin-2-yl)-ethyl]-phenyl}-ethanol]"
7,3.1,"CN(C)CCOc1cnc2[nH]c(C(CC3CCCC3)c3ccc(S(C)(=O)=O)cc3)cc2c1 (centres unmarked) [Example 17, (2-{2-[2-Cyclopentyl-1-(4-methanesulfonyl-phenyl)-ethyl]-1H-pyrrolo[2,3-b]pyridin-5-yloxy}-ethyl)-dimethyl-amine]"
8,1.7,"O=S(=O)(CCN1CCOCC1)c1ccc(C(CC2CCCC2)c2cc3cccnc3[nH]2)cc1 (centres unmarked) [Example 93, 2-{2-Cyclopentyl-1-[4-(2-morpholin-4-yl-ethanesulfonyl)-phenyl]-ethyl}-1H-pyrrolo[2,3-b]pyridine]"
9,1.1,"CN(C)CCS(=O)(=O)c1ccc(C(CC2CCCC2)c2cc3cccnc3[nH]2)cc1 (centres unmarked) [Example 92, (2-{4-[2-Cyclopentyl-1-(1H-pyrrolo[2,3-b]pyridin-2-yl)-ethyl]-benzenesulfonyl}-ethyl)-dimethyl-amine]"
10,2.6,"Cc1cnc2[nH]c([C@H](CC3CCCC3)c3ccc(C(C)(C)O)c(F)c3)cc2c1 (single isomer, unassigned) [Example 129]"
11,0.218,"COc1cnc2[nH]c([C@H](CC3CCCCC3)c3ccc(S(C)(=O)=O)cc3)cc2c1 (single isomer, unassigned) [Example 10]"
12,9.0,"CN(C)CCc1cnc2[nH]c(C(CC3CCCC3)c3ccc(S(C)(=O)=O)cc3)cc2c1 (centres unmarked) [Example 40, (2-{2-[2-Cyclopentyl-1-(4-methanesulfonyl-phenyl)-ethyl]-1H-pyrrolo[2,3-b]pyridin-5-yl}-ethyl)-dimethyl-amine]"
13,0.368,"CC(C)CC(c1ccc(C(C)(C)O)c(F)c1)c1cc2cc(F)cnc2[nH]1 (centres unmarked) [Example 105, 2-{2-Fluoro-4-[1-(5-fluoro-1H-pyrrolo[2,3-b]pyridin-2-yl)-3-methyl-butyl]-phenyl}-propan-2-ol]"
14,0.028,"CS(=O)(=O)c1ccc(/C(=C\C2CCC2)c2cc3cc(F)cnc3[nH]2)cc1 [Example 46, 2-[(E)-2-Cyclobutyl-1-(4-methanesulfonyl-phenyl)-vinyl]-5-fluoro-1H-pyrrolo[2,3-b]pyridine]"
15,20.6,"CC(C)(C)CC(c1ccc(S(C)(=O)=O)cc1)c1cc2cccnc2[nH]1 (centres unmarked) [Example 74, 2-[1-(4-Methanesulfonyl-phenyl)-3,3-dimethyl-butyl]-1H-pyrrolo[2,3-b]pyridine]"
